Converted amounts (≈) assume the structure as drawn.
Tests used:
[1] = tested on: Mycobacterium tuberculosis; test: Antimycobacterial activity against Mycobacterium tuberculosis H37Rv by agar dilution method; format: functional
Vero = test: Cytotoxicity against african green monkey Vero cells after 72 hrs by MTT assay; format: cell-based; conditions: Chlorocebus sabaeus

COc1cc2c(cc1OC)C(=O)[C@]1(C2)[C@@H](c2ccc(F)cc2)[C@@H]2CSCN2[C@@]12C(=O)N(N1CCOCC1)c1ccccc12
MIC90 [1]: 8.12 µM (≈ 4.89 µg/mL) | IC50 (Vero): > 62.5 µg/mL

COc1ccc([C@H]2[C@@H]3CSCN3[C@@]3(C(=O)Nc4ccc(OC(F)(F)F)cc43)[C@@]23Cc2cc(OC)c(OC)cc2C3=O)cc1OC
MIC90 [1]: 12.2 µM (≈ 7.85 µg/mL) | IC50 (Vero): > 62.5 µg/mL

COc1cc2c(cc1OC)C(=O)[C@]1(C2)[C@@H](c2ccccc2)[C@@H]2CSCN2[C@@]12C(=O)Nc1ccc(OC(F)(F)F)cc12
MIC90 [1]: > 6.25 µM | IC50 (Vero): > 62.5 µg/mL

COc1cc2c(cc1OC)C(=O)[C@]1(C2)[C@@H](c2ccccc2Cl)[C@@H]2CSCN2[C@@]12C(=O)Nc1ccc(OC(F)(F)F)cc12
MIC90 [1]: 11.4 µM (≈ 7.04 µg/mL) | IC50 (Vero): > 62.5 µg/mL

COc1ccc([C@H]2[C@@H]3CSCN3[C@@]3(C(=O)N(N4CCOCC4)c4ccccc43)[C@@]23Cc2cc(OC)c(OC)cc2C3=O)cc1OC
MIC90 [1]: 21.2 µM (≈ 13.6 µg/mL) | IC50 (Vero): > 62.5 µg/mL

NNC(=O)c1ccncc1 [ISONIAZID]
MIC90 [1]: 0.73 µM (≈ 0.1 µg/mL) | IC50 (Vero): > 62.5 µg/mL

COc1cc2c(cc1OC)C(=O)[C@]1(C2)[C@@H](c2ccccc2Cl)[C@@H]2CSCN2[C@@]12C(=O)N(N1CCOCC1)c1ccccc12
MIC90 [1]: 6.29 µM (≈ 3.89 µg/mL) | IC50 (Vero): > 62.5 µg/mL

COc1cc2c(cc1OC)C(=O)[C@]1(C2)[C@@H](c2ccccc2)[C@@H]2CSCN2[C@@]12C(=O)N(N1CCOCC1)c1ccccc12
MIC90 [1]: > 6.25 µM | IC50 (Vero): > 62.5 µg/mL

COc1cc2c(cc1OC)C(=O)[C@]1(C2)[C@@H](c2ccc(F)cc2)[C@@H]2CSCN2[C@@]12C(=O)Nc1ccc(OC(F)(F)F)cc12
MIC90 [1]: 0.72 µM (≈ 0.432 µg/mL) | IC50 (Vero): > 62.5 µg/mL

Reference: ChEMBL document CHEMBL2203242, “A regio- and stereoselective 1,3-dipolar cycloaddition for the synthesis of new-fangled dispiropyrrolothiazoles as antimycobacterial agents” (Bioorg Med Chem Lett, 2012)
